Test results reported in patent US5770573A, “CS-1 peptidomimetics, compositions and methods of using the same” (Cytel Corporation, priority 1995, dated 1998).
Square brackets hold non-standard residues; d marks the D form. Peptide text beside a SMILES is read from it. * marks the point of attachment. Morpholide = C1CN(*)CCO1; Octanoyl = CCCCCCCC(=O)*; Piperidide = C1CCN(*)CC1; Cbz = O=C(OCc1ccccc1)*; PhAc = O=C(Cc1ccccc1)*; OtBu = CC(C)(C)O*; tBu = CC(C)(C)*; NHBu = CCCCN*

Molecular target: VLA-4 (Homo sapiens, UniProt P05556+P13612)
Sequence (P13612 34-1032): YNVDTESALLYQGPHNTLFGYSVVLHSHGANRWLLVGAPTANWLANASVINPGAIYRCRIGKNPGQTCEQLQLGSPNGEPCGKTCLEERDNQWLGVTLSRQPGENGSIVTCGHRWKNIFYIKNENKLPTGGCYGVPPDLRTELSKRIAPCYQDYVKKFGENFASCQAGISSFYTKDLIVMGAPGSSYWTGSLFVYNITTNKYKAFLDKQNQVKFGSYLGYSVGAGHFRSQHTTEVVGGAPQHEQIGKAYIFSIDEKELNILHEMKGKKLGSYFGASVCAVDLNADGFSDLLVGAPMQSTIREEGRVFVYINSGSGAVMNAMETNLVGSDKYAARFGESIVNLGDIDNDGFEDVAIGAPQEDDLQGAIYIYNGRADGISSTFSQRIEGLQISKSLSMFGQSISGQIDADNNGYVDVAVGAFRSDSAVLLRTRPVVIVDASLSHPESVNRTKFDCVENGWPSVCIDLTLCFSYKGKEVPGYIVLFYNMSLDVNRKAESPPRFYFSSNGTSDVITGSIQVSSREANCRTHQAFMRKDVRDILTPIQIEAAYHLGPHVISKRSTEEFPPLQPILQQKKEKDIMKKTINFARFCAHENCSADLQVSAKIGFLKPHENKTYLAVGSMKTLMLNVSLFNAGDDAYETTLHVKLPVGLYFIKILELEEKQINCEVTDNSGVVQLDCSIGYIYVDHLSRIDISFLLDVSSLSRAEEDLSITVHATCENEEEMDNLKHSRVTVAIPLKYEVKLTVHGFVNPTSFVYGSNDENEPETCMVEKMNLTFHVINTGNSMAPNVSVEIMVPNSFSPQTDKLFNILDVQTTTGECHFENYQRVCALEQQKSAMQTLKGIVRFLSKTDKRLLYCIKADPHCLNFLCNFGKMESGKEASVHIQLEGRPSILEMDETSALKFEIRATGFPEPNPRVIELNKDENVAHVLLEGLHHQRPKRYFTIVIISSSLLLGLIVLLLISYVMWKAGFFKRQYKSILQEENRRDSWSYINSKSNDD
Sequence (P05556 21-798): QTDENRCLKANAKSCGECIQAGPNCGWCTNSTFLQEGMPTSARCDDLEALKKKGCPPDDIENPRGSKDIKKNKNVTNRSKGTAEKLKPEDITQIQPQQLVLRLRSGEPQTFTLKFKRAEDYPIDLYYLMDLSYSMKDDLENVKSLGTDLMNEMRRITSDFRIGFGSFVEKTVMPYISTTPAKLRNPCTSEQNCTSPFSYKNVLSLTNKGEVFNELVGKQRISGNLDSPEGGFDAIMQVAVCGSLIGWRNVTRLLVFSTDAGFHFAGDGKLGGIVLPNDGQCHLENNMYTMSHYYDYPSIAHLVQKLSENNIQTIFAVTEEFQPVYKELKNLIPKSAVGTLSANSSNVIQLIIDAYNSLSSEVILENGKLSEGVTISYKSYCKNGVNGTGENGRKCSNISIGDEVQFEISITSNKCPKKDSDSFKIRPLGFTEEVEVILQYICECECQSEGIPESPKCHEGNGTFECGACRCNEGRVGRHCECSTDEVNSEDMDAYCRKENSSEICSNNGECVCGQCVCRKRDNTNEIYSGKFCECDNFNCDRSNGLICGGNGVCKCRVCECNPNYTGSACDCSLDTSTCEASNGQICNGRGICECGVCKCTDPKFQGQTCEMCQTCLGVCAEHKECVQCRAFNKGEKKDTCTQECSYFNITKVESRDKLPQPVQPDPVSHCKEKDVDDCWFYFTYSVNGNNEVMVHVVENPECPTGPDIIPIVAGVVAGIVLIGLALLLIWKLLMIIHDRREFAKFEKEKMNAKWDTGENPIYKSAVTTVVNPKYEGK
Assay: In vitro binding inhibition of 51Cr-labeled Jurkat cells to solid phase-bound CS-1 compound (SEQ ID NO:1)
Assay type: cell-based
Set-up: inflammatory cells that contain the VLA-4 receptor [Jurkat cells; host or cells: Jurkat (human T lymphoblastic line)
Details: not given
In short: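 51Cr-labeled human Jurkat cells were preincubated with compound 30 min at about 22° C, then allowed to bind to wells coated with CS-1 peptide or CS-1-OVA for 30 min at 37° C. After washing, bound cells were lysed with SDS and counted. IC50 is the concentration halving binding, normalized to SEQ ID NO: 3.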

| Relative Potency | SMILES |
| --- | --- |
| 34.4 | CC(C)C[C@H](NC(=O)OCc1ccccc1)C(=O)N[C@@H](CC(=O)O)C(=O)N[C@@H](Cc1ccccc1)C(=O)N1CCC[C@@H]1C(N)=O [1056.01] (Cbz-LDF[dP]-NH2) |
| 0 | COc1ccc(CCCC(=O)N[C@@H](CC(=O)O)C(=O)N[C@@H](Cc2ccccc2)C(=O)N2CCC[C@@H]2C(N)=O)cc1OC [1056.02] |
| 0 | CC(=O)[C@H]1C[C@@H](CC(=O)N[C@@H](CC(=O)O)C(=O)N[C@@H](Cc2ccccc2)C(=O)N2CCC[C@@H]2C(N)=O)C1(C)C [1056.03] |
| .2 | NC(=O)[C@H]1CCCN1C(=O)[C@H](Cc1ccccc1)NC(=O)[C@H](CC(=O)O)NC(=O)CCCCc1ccccc1 [1056.04] |
| 0 | NC(=O)[C@H]1CCCN1C(=O)[C@H](Cc1ccccc1)NC(=O)[C@H](CC(=O)O)NC(=O)c1cc2cc(O)ccc2cc1O [1056.05] |
| 0 | CC(C)[C@@H]1CC[C@@H](C)C[C@H]1OCC(=O)N[C@@H](CC(=O)O)C(=O)N[C@@H](Cc1ccccc1)C(=O)N1CCC[C@@H]1C(N)=O [1056.06] |
| 0 | NC(=O)[C@H]1CCCN1C(=O)[C@H](Cc1ccccc1)NC(=O)[C@H](CC(=O)O)NC(=O)CCCCCC1CCCCC1 [1056.07] |
| 0 | NC(=O)[C@H]1CCCN1C(=O)[C@H](Cc1ccccc1)NC(=O)[C@H](CC(=O)O)NC(=O)CCCCC1CCCCC1 [1056.08] |
| 0 | CC(C)=CCCC(C)CC(=O)N[C@@H](CC(=O)O)C(=O)N[C@@H](Cc1ccccc1)C(=O)N1CCC[C@@H]1C(N)=O (stereo partly shown) [1056.10] |
| 0 | NC(=O)[C@H]1CCCN1C(=O)[C@H](Cc1ccccc1)NC(=O)[C@H](CC(=O)O)NC(=O)CCCCC[N+](=O)[O-] [1056.11] |
| 0 | CCCCCCCC(=O)N[C@@H](CC(=O)O)C(=O)N[C@@H](Cc1ccccc1)C(=O)N1CCC[C@@H]1C(N)=O [1056.12] (Octanoyl-Asp-Phe-[dP]-NH2) |
| 0 | NC(=O)[C@H]1CCCN1C(=O)[C@H](Cc1ccccc1)NC(=O)[C@H](CC(=O)O)NC(=O)CC12CC3CC(CC(C3)C1)C2 [1056.13] |
| .25 | CC(C)CC(CCCc1ccccc1)C(=O)N[C@@H](CC(=O)O)C(=O)N[C@@H](Cc1ccccc1)C(=O)N1CCC[C@@H]1C(N)=O (stereo partly shown) [1056.14] |

| SMILES | Relative Potency |
| --- | --- |
| CC(C)C[C@H](NC(=O)c1ccncc1)C(=O)N[C@@H](CC(=O)O)C(=O)N[C@@H](Cc1ccc(O)cc1)C(=O)N1CCCCC1 [1045.01] | 23.8 |
| CC(C)C[C@@H](C(=O)N[C@@H](CC(=O)O)C(=O)N[C@@H](Cc1ccccc1)C(=O)N1CCCCC1)N1C(=O)N[C@H](c2ccccc2)C1=O [1047.01] | 34.4 |
| CC(C)C[C@@H](C(=O)N[C@@H](CC(=O)O)C(=O)N[C@@H](Cc1ccccc1)C(=O)N1CCCCC1)N1C(=O)N[C@@H](c2ccccc2)C1=O [1047.02] | 3.13 |
| CC(C)C[C@@H](C(=O)N1C(=O)N([C@@H](Cc2ccccc2)C(=O)N2CCCCC2)C(=O)[C@@H]1CC(=O)O)N1C(=O)c2ccccc2C1=O [1047.03] | 0 |
| CC(C)C[C@@H]1NC(=O)N([C@@H](CC(=O)O)C(=O)N[C@@H](Cc2ccccc2)C(=O)N2CCCCC2)C1=O [1047.05] | 12.5 |
| CC(C)C[C@@H](C(=O)N[C@@H](CC(=O)O)C(=O)N[C@@H](Cc1ccccc1)C(=O)N1CCCCC1)N1C(=O)N[C@@H](Cc2ccccc2)C1=O [1047.06] | 6.26 |
| CC(C)C[C@H](N)C(=O)N[C@@H](CC(=O)O)C(=O)N[C@@H](Cc1ccccc1)C(=O)N1CCCCC1 [1047.09] (H-Leu-Asp-Phe-Piperidide) | 0.01 |

Same assay, conditions: binding inhibition potency relative to standard compound of SEQ ID NO:3 = 1 (normalized IC50); about one-tenth or less assigned zero

| SMILES | Relative Potency |
| --- | --- |
| CC(C)C[C@H](NC(=O)Cc1ccccc1)C(=O)N[C@@H](CC(=O)O)C(=O)N[C@@H](Cc1ccc(OC(C)(C)C)cc1)C(=O)OC(C)(C)C [1040.01] (PhAc-Leu-Asp-Tyr(tBu)-OtBu) | 2.66 |
| CC(C)C[C@H](NC(=O)Cc1ccccc1)C(=O)N[C@@H](CC(=O)O)C(=O)N[C@@H](Cc1ccc(O)cc1)C(=O)OC(C)(C)C [1040.02] (PhAc-Leu-Asp-Tyr-OtBu) | 14.7 |
| CC(C)C[C@@H](CN[C@@H](CC(=O)O)C(=O)N[C@@H](Cc1ccccc1)C(=O)N1CCCCC1)NC(=O)Cc1ccccc1 [1041.01] | 0 |
| NC(=O)[C@H]1CCCN1C(=O)[C@H](Cc1ccccc1)NC(=O)[C@H](CC(=O)O)NC(=O)[C@H](CS)NC(=O)Cc1ccccc1 [1042.22] (PhAc-CDF[dP]-NH2) | 46.9 |
| CC(C)C[C@H](NC(=O)Cc1ccccc1)C(=O)N[C@@H](CC(=O)O)C(=O)N[C@@H](CO)C(=O)N1CCC[C@@H]1C(N)=O [1042.23] (PhAc-LDS[dP]-NH2) | 33.2 |
| CC(C)C[C@H](NC(=O)Cc1ccccc1)C(=O)N[C@@H](CC(=O)O)C(=O)N[C@@H]1CCCCNC1=O [1043.01] | 17.2 |
| CC(C)C[C@H](NC(=O)Cc1ccccc1)C(=O)N[C@@H](CC(=O)O)C(=O)NC1CCCCNC1=O (stereo partly shown) [1043.02] | 26.8 |
| CC(C)C[C@H](NC(=O)Cc1ccccc1)C(=O)N[C@@H](CC(=O)O)C(=O)N[C@@H](Cc1ccc(O)cc1)C(=O)N1CCOCC1 [1045.02] (PhAc-Leu-Asp-Tyr-Morpholide) | 313 |
| CC(C)C[C@H](NC(=O)Cc1ccccc1)C(=O)N[C@@H](CC(=O)O)C(=O)N1C(=O)N(Cc2ccccc2)C(=O)[C@H]1Cc1ccccc1 [1047.07] | .38 |
| CC(C)C[C@H](NC(=O)Cc1ccccc1)C(=O)N[C@@H](CC(=O)O)C(=O)N1C(=O)N(Cc2ccccc2)C(=O)[C@@H]1Cc1ccccc1 [1047.08] | .38 |
| CC(C)C[C@H](NC(=O)Cc1ccccc1)C(=O)N[C@@H](CC(=O)O)C(=O)N[C@@H](Cc1ccccc1)C(=O)N1CCNCC1 [1051.02] | 507 |
| CCCCNC(=O)[C@H](Cc1ccccc1)NC(=O)[C@H](CC(=O)O)NC(=O)[C@H](CC(C)C)NC(=O)Cc1ccccc1 [1051.03] (PhAc-Leu-Asp-Phe-NHBu) | 2.82 |
| CC(C)C[C@H](NC(=O)Cc1ccccc1)C(=O)N[C@@H](CC(=O)O)C(=O)N[C@@H](Cc1ccccc1)C(=O)NCC(=O)N1CCOCC1 [1051.04] (PhAc-LDFG-Morpholide) | 3.13 |
| CC(C)C[C@H](NC(=O)Cc1ccccc1)C(=O)N[C@@H](CC(=O)O)C(=O)N[C@@H](Cc1ccccc1)C(=O)NCCCO [1051.05] | 25 |
| NC(=O)[C@H]1CCCN1C(=O)[C@H](Cc1ccccc1)NC(=O)[C@H](CC(=O)O)NC(=O)CCCCC1CCSS1 (stereo partly shown) [1056.09] | 1.1 |
| O=C(O)CC(C(=O)N[C@@H](Cc1ccccc1)C(=O)N1CCCCC1)N1CC[C@H](NC(=O)Cc2ccccc2)C1=O (stereo partly shown) [1057.01] | .88 |
| CC(C)C[C@H](NC(=O)Cc1ccccc1)C(=O)N[C@@H](CC(=O)O)C(=O)N[C@H]1CCN(C2CCCCC2)C1=O [1057.02] | 6.57 |
| CC(C)C[C@H](NC(=O)Cc1ccccc1)C(=O)N[C@@H](CC(=O)O)C(=O)N[C@@H]1CCN(C2CCCCC2)C1=O [1057.03] | 3.44 |
| COc1ccccc1N1CC[C@H](NC(=O)[C@H](CC(=O)O)NC(=O)[C@H](CC(C)C)NC(=O)Cc2ccccc2)C1=O [1057.04] | 3.13 |
| CC(C)C[C@H](NC(=O)Cc1ccccc1)C(=O)N[C@@H](CC(=O)O)C(=O)NC1CCCCN(CC(N)=O)C1=O (stereo partly shown) [1057.06] | 97 |
